Data set [1] has as its target DCS. Also noted: method as in PMID 22397618. Conditions: cited from earlier work.
Data set [2] concerns the target T1, amorpha-4,11-diene synthase (ADS) (Artemisia annua, UniProt Q9AR04).
T1 construct: made in house
Nature of the data set: Inhibition of amorpha-4,11-diene synthase, radiolabelled FDP assay. In kind it is biochemical. Here is the method:
(§1) Recombinant AS and ADS were prepared and purified according to previously published procedures[17],[18] and both (R)-11 and (S)-11 were tested as inhibitors using a standard radiolabelled assay involving conversion of tritium labelled FDP by each enzyme and scintillation counting of the pentane extractable products.[5b] Terpene synthases are known to efficiently bind cation-PPi pairs and inhibition was assessed both in the presence and absence of 250 μM diphosphate (Table 1). Synergistic inhibition of aza-analogues 11 with diphosphate has been observed previously for a variety of other terpene synthases.[5d],[13c],[14]
(§2) Kinetic data were fitted by non-linear regression to the Michaelis–Menten equation (v0 = kcat[E][S]/(KM + [S]). The mode of inhibition was determined by inspection of double reciprocal plots and observed to be competitive in all cases where inhibition was significant at low concentrations of 11. KI was determined from a plot of inhibitor concentration versus K′M/(kcat[E]) where K′M = KM(1 + [I]/KI). […]
(§3) 2. Steady-state kinetics of DCS-His6, ADS and AS.
(§4) Kinetic assays were carried out according to the standard, linear range, micro-assay procedure previously described.5 The reaction mixtures containing buffer, FDP and protein were prepared on ice in a total volume of 250 µL and were overlaid with ca. 0.8 mL of HPLC-grade hexane prior to incubation. The assay mixtures were initiated by addition of enzyme and incubated at room temp (30 °C) for 10 min. The reactions were immediately ice-cooled and quenched by addition of 200 µL of 100 mM EDTA (pH 8.5) and brief vortexing. The hexane overlay and two additional 1 mL hexane extracts were passed through a short pipette column containing silica gel. The column was washed with additional hexane (1 mL) and the combined filtrates were analysed by liquid scintillation counting using 15 mL of scintillation cocktail Ecoscint O. Steady-State kinetic parameters for DCS-His6 and mutants were obtained by direct fitting of the data to the Michaelis-Menten equation by nonlinear least squares regression in conjunction with the graphical procedures developed by Lineweaver-Burk using the commercial SigmaPlot package (Systat Software).

Data set [3] deals with T2, aristolochene synthase from Penicillium roqueforti (AS) (Penicillium roqueforti, UniProt Q03471).
T2 construct: made in house
Nature of the data set: Inhibition of aristolochene synthase, radiolabelled FDP assay. The data set is classed as biochemical. Here is the method: as §1, §2, §3, §4

Data set [4] concerns the target T3, δ-cadinene synthase (DCS-His6) (Gossypium arboreum, UniProt Q39761).
T3 construct: hexahistidine (His6) (C); made in house; host or cells: E. coli BL-21 (DE3)
T3 sequence (Q39761 1-554): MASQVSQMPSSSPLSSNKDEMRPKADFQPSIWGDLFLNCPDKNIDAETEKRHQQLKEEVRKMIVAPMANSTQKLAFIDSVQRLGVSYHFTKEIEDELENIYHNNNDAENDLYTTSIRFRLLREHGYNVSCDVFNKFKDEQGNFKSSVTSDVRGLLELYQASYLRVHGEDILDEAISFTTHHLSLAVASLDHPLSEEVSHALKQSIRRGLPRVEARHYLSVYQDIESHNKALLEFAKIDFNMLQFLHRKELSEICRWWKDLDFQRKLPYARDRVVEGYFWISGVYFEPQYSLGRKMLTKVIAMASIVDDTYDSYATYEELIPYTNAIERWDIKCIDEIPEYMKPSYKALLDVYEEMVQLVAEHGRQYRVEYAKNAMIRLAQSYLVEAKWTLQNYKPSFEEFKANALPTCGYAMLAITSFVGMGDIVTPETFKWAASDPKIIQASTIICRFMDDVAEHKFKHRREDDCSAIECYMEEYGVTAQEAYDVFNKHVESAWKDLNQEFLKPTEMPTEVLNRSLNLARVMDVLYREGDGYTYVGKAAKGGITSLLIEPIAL
Briefly: Inhibition of δ-cadinene synthase, radiolabelled FDP assay. In kind it is biochemical. As for the experimental part: as §1
Kinetic data were fitted by non-linear regression to the Michaelis–Menten equation (v0 = kcat[E][S]/(KM + [S]). The mode of inhibition was determined by inspection of double reciprocal plots and observed to be competitive in all cases where inhibition was significant at low concentrations of 11. KI was determined from a plot of inhibitor concentration versus K′M/(kcat[E]) where K′M = KM(1 + [I]/KI).
Recombinant DCS was generated with a C-terminal hexahistidine tag (DCS-His6) as previously described.[19] Inhibition assays were carried out using the same protocol used for AS and ADS. […] DCS clearly requires a cation–anion pair in its active site for effective inhibition by aza-analogues. Our results provide strong evidence for 1,6-cyclase activity for DCS. […]
as §3, §4

The mark [5] stands for this setting: +250 μM PPi, read-out: K i (μM) (+250 μM PPi).
[6] abbreviates: K i (μM) (+250 μM PPi), +250 μM PPi.

We go through 4 compounds from publication PMC6369673, “Silent catalytic promiscuity in the high-fidelity terpene cyclase δ-cadinene synthase” (Organic & Biomolecular Chemistry, 2019).

Where a name gives a salt, the structure may show the parent alone. Read-outs that look alike come from different tables or passages of the source.

T1 sequence (Q9AR04 whole entry): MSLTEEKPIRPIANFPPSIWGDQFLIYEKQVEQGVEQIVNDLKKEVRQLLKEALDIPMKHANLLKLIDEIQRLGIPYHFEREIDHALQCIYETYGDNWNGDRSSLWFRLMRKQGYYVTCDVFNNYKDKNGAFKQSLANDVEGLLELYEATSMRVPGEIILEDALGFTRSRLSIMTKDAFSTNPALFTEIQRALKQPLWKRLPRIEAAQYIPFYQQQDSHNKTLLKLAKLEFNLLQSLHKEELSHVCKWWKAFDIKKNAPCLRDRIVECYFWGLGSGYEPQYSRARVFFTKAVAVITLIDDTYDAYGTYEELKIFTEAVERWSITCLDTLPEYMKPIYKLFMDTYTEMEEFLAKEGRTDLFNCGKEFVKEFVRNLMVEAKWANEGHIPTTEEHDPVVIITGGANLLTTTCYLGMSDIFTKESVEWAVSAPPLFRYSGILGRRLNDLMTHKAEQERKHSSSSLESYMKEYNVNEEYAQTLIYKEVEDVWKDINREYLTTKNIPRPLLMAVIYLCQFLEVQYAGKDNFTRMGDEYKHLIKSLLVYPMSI
T2 sequence (Q03471 whole entry): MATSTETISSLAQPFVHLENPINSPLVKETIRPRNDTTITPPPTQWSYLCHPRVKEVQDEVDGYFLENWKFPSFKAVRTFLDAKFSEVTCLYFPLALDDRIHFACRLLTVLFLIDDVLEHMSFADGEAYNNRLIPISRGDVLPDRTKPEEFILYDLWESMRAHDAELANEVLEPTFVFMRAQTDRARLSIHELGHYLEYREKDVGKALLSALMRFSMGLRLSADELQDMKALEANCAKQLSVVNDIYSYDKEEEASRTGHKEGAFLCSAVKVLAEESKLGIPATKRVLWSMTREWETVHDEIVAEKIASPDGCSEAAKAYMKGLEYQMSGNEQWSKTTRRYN

The term melting point denotes the temperature, or range, at which the solid turns liquid. On to `CC(C)=CCCN(C)[C@@H]1CC=C(C)CC1` (as salt: hydrochloride) [(S)-11], for which the melting point was in the range of 131 to 133 °C.
In the case of `CC(C)=CCCC(C)=C(F)CCC(C)=CCOP(=O)(O)OP(=O)(O)O` [6F-FDP, 6-fluorofarnesyl diphosphate], in data set [1] (DCS, 6F-FDP as substrate analogue), the Ki is 2.4 µM. Besides, in data set [1] (pentane-extractable products), the “Products when incubated with DCS” value is listed as “no detectable pentane-extractable products”.
As to `CC(C)=CCCN(C)[C@H]1CC=C(C)CC1` [(R)-11], the Ki in data set [2] (setting [5]) stood at 3.7 ± 1.9 µM; in data set [2] (absence of PPi, read-out: K i) it was 50 ± 17 µM; in data set [3] (setting [6]), 489 ± 62 µM; in data set [3] (K i (μM), absence of PPi), 472 ± 48 µM; in data set [4] (setting [5]) it was 2.5 ± 0.5 µM; in data set [4] (absence of PPi, read-out: K i), 1700 ± 300 µM. In addition, in data set [4] (in the absence of PPi), the Inhibition in words entry is “weak inhibitor”.
Take `CC(C)=CCCN(C)[C@@H]1CC=C(C)CC1` [(S)-11]: the Ki in data set [2] (setting [5]) was found to be 1.5 ± 0.5 µM; in data set [2] (absence of PPi, read-out: K i) it was 25 ± 5 µM; in data set [3] (setting [6]), 255 ± 23 µM; in data set [3] (K i (μM), absence of PPi), 295 ± 23 µM; in data set [4] (setting [5]), 3.44 ± 1.43 µM; in data set [4] (absence of PPi, read-out: K i), 273 ± 77 µM.
